Laboratory results reported in patent publication US6316409A, “Modified ligands of calcium-dependent binding proteins” (Medical Research Council, priority 1996, dated 2001).
Entries after “also recorded” stand apart in the source; their conditions may differ. Peptide text beside a SMILES is read from it.

Columns and labels:
bovine brain calmodulin [1] = target: T1, bovine brain calmodulin (Bos taurus, UniProt P62157); assay: stopped-flow measurement of kisom of calmodulin-binding peptides; conditions: changes in tryptophan fluorescence
T1 construct: Complexes between calmodulin from bovine brain (1 μM, Sigma); purchased Sigma; host or cells: bovine brain (tissue-derived)
Source text: It has been shown by Torok and Trentham (1994) that smooth muscle MLCK-derived peptides bind to calmodulin with a biphasic kinetic according to the scheme: [drawing 1]
in which P is the peptide, C is calmodulin, P-C is the first complex formed on association of P and C, which then undergoes a conformational isomerisation to P-C*.
(§1) For a kinetic and thermodynamic characterisation of the binding of the peptides of the present invention to bovine brain calmodulin, we have measured the kinetic isomerisation, association, and dissociation constants from which dissociation constants can be derived.
kisom constants have been measured by stopped-flow, detecting changes in tryptophan fluorescence for all the peptides except 3 (SEQ ID NO:4), in which the tryptophan is replaced by alanine.

bovine brain calmodulin [2] = target: T1, bovine brain calmodulin; assay: BIAcore surface plasmon resonance, kon and koff of calmodulin binding to biotinylated peptides; conditions: for koff: read-out: koff (s^-1)^B; for kon: read-out: kon (s^-1 M^-1)^B; for improvement in Kd / affinity for calmodulin over the wild type peptide, in words: Table 1
Source text: as §1
koff =k-1·k-2 /(k+2 +k-2)
Real-time interaction analysis by surface plasmon resonance on a BIAcore instrument (Jonsson et al., 1991) was used to determine kon and koff constants. Biotinylated peptides 1-17 were bound to commercially available streptavidin-coated microsensor chips (Pharmacia Biosensor), in order to achieve a surface capacity of 100-200 surface plasmon resonance units of calmodulin bound. Different concentrations of calmodulin (5, 10, 20, 50 and 100 nM in the order of FIG. 2) were injected and allowed to associate with the peptides. Regeneration of the surface was achieved by injection of 5 μl TBS+[…] which dissociates the calmodulin-peptide complex.

calmodulin = calmodulin (Bos taurus, UniProt P62157); assay: koff by competition experiments, native PAGE of fluorescein-labelled peptide/calmodulin complexes; type: binding, bovine; set-up: Complexes between calmodulin from bovine brain (1 μM, Sigma); purchased Sigma; host or cells: bovine brain (tissue-derived); conditions: for koff: competition with 30-fold excess unlabelled peptide, room temperature, gel buffer, read-out: koff (s^-1)^C; for dissociation from calmodulin in competition with excess unlabelled peptide, in words: FIG. 3
Description: Complexes between calmodulin from bovine brain (1 μM, Sigma) and fluorescein-labelled sMLCK-derived peptides (as described in Table 1 (SEQ ID NOS:2-18)) were prepared in gel buffer (25% gel mix [4 g sucrose+1 mg bromophenol blue in water to give a 10 ml solution]+75% TBSC [50 mM TRIS pH 7.4, […]+50 μM CaCl2)] and run on a 15% native PAGE gel (5 ml 30% acrylamide-bisacrylamide solution+4.5 ml water+0.5 ml 3M Tris, pH 8.8, +1 μl 1M CaCl2 polymerised with 30 μl 25% ammonium persulphate and 9 μl TEMED) using 14.4 g/l glycine+3 g/l Tris-base+0.1 mM CaCl2 as running buffer. Peptides were labelled either with iodoacetamido fluorescein (Molecular Probes) or with iodoacetamido-LC-biotin (Pierce) essentially as previously described by Neri et al., (1995). In these conditions, the fluorescence of the positively-charged labelled peptides can be detected only if they form a stable complex with calmodulin.
In order to obtain an independent experimental confirmation if the BIAcore results, koff constants for peptides 1-17 towards calmodulin were determined by competition experiments. 30 nM fluorescein-labelled peptide/calmodulin complexes in gel buffer were competed at room temperature for different times with 30-fold excess of unlabelled peptide. The resulting mixtures were run on native PAGE gels and imaged by LUANA as described above. The bands in the image obtained were integrated using the LUANA software (Neri et al., 1996) and the corresponding intersities plotted versus time and fitted with a single exponential, from which koff constants were derived. In order to normalise band intensities against pipetting errors, the samples contained 6 nM free fluorescein which ran with the front. The fluorescein bands were integrated and used to normalise the calmodulin/fluorescent peptide complex band intensity. The results of competitions for peptides 1, 2, 3, 6, 9, and 14 are shown in this FIG. 3. Incubation time in minutes is indicated under the lanes.
The volumes of the bands were plotted versus competition time and fitted to a single exponential, from which koff values were derived.
The fastest competitions (peptides 1-4, 9 and 13, SEQ ID NOS:2-5,10, and 14) were over by the time the calmodulin/fluorescent peptide complex entered the gel (approximately 5-10 minutes from pipetting a molar excess of unlabelled peptide; FIG. 3), from which a condition on the off-rate constant koff >1×10^-3 s^-1 was derived. Even for these fast off-rates, complexes can be detected by native polyacrylamide gel electrophoresis because of the well known gel "cage effect" (Fried and Crothers, 1981; Garner and Revzin, 1981).

## CC[C@H](C)[C@H](NC(=O)[C@H](CCCCN)NC(=O)[C@H](CCCCN)NC(=O)[C@H](Cc1ccccc1)NC(=O)[C@H](CCCNC(=N)N)NC(=O)[C@H](CC(N)=O)NC(=O)[C@H](C)NC(=O)[C@H](C)NC(=O)[C@H](CO)NC(=O)[C@@H](NC(=O)[C@H](C)NC(=O)[C@H](C)NC(=O)[C@H](Cc1ccccc1)NC(=O)[C@H](CC(N)=O)NC(=O)[C@H](CCCCN)NC(=O)[C@H](CCCCN)NC(=O)[C@H](Cc1c[nH]c2ccccc12)NC(=O)[C@H](CCCNC(=N)N)NC(=O)[C@H](C)NC(=O)[C@H](C)NC(=O)[C@H](C)NC(=O)[C@@H](N)CS)C(C)C)C(=O)N[C@@H](CO)C(N)=O [Peptide 8] (H-CAAARWKKNFAAVSAANRFKKIS-NH2; N-terminus assumed)
Bovine brain calmodulin [1]
  kisom. (s^-1)^A: 1.1 (10.3) × 10^-1 s^-1
Bovine brain calmodulin [2]; BIAcore
  koff: 0.00023 s⁻¹
  kon: 920000 M⁻¹ s⁻¹
calmodulin
  koff: 0.00047 s⁻¹

## CC[C@H](C)[C@H](NC(=O)[C@H](Cc1ccccc1)NC(=O)[C@H](CC(N)=O)NC(=O)[C@H](CCCCN)NC(=O)[C@H](CCCCN)NC(=O)[C@H](Cc1c[nH]c2ccccc12)NC(=O)[C@H](CCCNC(=N)N)NC(=O)[C@H](C)NC(=O)[C@H](C)NC(=O)[C@H](C)NC(=O)[C@@H](N)CS)C(=O)N[C@@H](C)C(=O)N[C@@H](C)C(=O)N[C@@H](CO)C(=O)N[C@@H](C)C(=O)N[C@@H](C)C(=O)N[C@@H](CC(N)=O)C(=O)N[C@@H](CCCNC(=N)N)C(=O)N[C@@H](Cc1ccccc1)C(=O)N[C@@H](CCCCN)C(=O)N[C@@H](CCCCN)C(=O)N[C@H](C(=O)N[C@@H](CO)C(N)=O)[C@@H](C)CC [Peptide 9] (H-CAAARWKKNFIAASAANRFKKIS-NH2; N-terminus assumed)
Bovine brain calmodulin [1]
  kisom. (s^-1)^A: 1.5 (10.3) × 10^-1 s^-1
Bovine brain calmodulin [2]; BIAcore
  koff: 0.0012 s⁻¹
  kon: 860000 M⁻¹ s⁻¹
calmodulin
  dissociation from calmodulin in competition with excess unlabelled peptide, in words: dissociated from calmodulin in a few minutes
  koff: ≥ 0.001 s⁻¹

## CC[C@H](C)[C@H](NC(=O)[C@H](Cc1ccccc1)NC(=O)[C@H](CC(N)=O)NC(=O)[C@H](CCCCN)NC(=O)[C@H](CCCCN)NC(=O)[C@H](Cc1c[nH]c2ccccc12)NC(=O)[C@H](CCCNC(=N)N)NC(=O)[C@H](C)NC(=O)[C@H](C)NC(=O)[C@H](C)NC(=O)[C@@H](N)CS)C(=O)N[C@@H](C)C(=O)N[C@H](C(=O)N[C@@H](C)C(=O)N[C@@H](C)C(=O)N[C@@H](C)C(=O)N[C@@H](CC(N)=O)C(=O)N[C@@H](CCCNC(=N)N)C(=O)N[C@@H](Cc1ccccc1)C(=O)N[C@@H](CCCCN)C(=O)N[C@@H](CCCCN)C(=O)N[C@H](C(=O)N[C@@H](CO)C(N)=O)[C@@H](C)CC)C(C)C [Peptide 10] (H-CAAARWKKNFIAVAAANRFKKIS-NH2; N-terminus assumed)
Bovine brain calmodulin [1]
  kisom. (s^-1)^A: 2.1 (11.0) × 10^-1 s^-1
Bovine brain calmodulin [2]
  improvement of koff with respect to wild type, in words: largest improvements
  improvement in Kd / affinity for calmodulin over the wild type peptide, in words: greatest improvement in affinity; also recorded: greatest improvement in Kd
Bovine brain calmodulin [2]; BIAcore
  koff: 0.0001 s⁻¹
  kon: 1.1e+06 M⁻¹ s⁻¹
calmodulin
  koff: 7.9e-05 s⁻¹

## CC[C@H](C)[C@H](NC(=O)[C@H](Cc1ccccc1)NC(=O)[C@H](CC(N)=O)NC(=O)[C@H](CCCCN)NC(=O)[C@H](CCCCN)NC(=O)[C@H](Cc1c[nH]c2ccccc12)NC(=O)[C@H](CCCNC(=N)N)NC(=O)[C@H](C)NC(=O)[C@H](C)NC(=O)[C@H](C)NC(=O)[C@@H](N)CS)C(=O)N[C@@H](C)C(=O)N[C@H](C(=O)N[C@@H](CO)C(=O)N[C@@H](C)C(=O)N[C@@H](C)C(=O)N[C@@H](C)C(=O)N[C@@H](CCCNC(=N)N)C(=O)N[C@@H](Cc1ccccc1)C(=O)N[C@@H](CCCCN)C(=O)N[C@@H](CCCCN)C(=O)N[C@H](C(=O)N[C@@H](CO)C(N)=O)[C@@H](C)CC)C(C)C [Peptide 11] (H-CAAARWKKNFIAVSAAARFKKIS-NH2; N-terminus assumed)
Bovine brain calmodulin [1]
  kisom. (s^-1)^A: 2.8 (10.6) × 10^-2 s^-1
Bovine brain calmodulin [2]; BIAcore
  koff: 0.00035 s⁻¹
  kon: 940000 M⁻¹ s⁻¹
calmodulin
  koff: 0.00049 s⁻¹

## CC[C@H](C)[C@H](NC(=O)[C@H](Cc1ccccc1)NC(=O)[C@H](CC(N)=O)NC(=O)[C@H](CCCCN)NC(=O)[C@H](CCCCN)NC(=O)[C@H](Cc1c[nH]c2ccccc12)NC(=O)[C@H](CCCNC(=N)N)NC(=O)[C@H](C)NC(=O)[C@H](C)NC(=O)[C@H](C)NC(=O)[C@@H](N)CS)C(=O)N[C@@H](C)C(=O)N[C@H](C(=O)N[C@@H](CO)C(=O)N[C@@H](C)C(=O)N[C@@H](C)C(=O)N[C@@H](CC(N)=O)C(=O)N[C@@H](C)C(=O)N[C@@H](Cc1ccccc1)C(=O)N[C@@H](CCCCN)C(=O)N[C@@H](CCCCN)C(=O)N[C@H](C(=O)N[C@@H](CO)C(N)=O)[C@@H](C)CC)C(C)C [Peptide 12] (H-CAAARWKKNFIAVSAANAFKKIS-NH2; N-terminus assumed)
Bovine brain calmodulin [1]
  kisom. (s^-1)^A: 1.7 (10.4) × 10^-1 s^-1
Bovine brain calmodulin [2]; BIAcore
  koff: 0.00041 s⁻¹
  kon: 1.6e+06 M⁻¹ s⁻¹
calmodulin
  koff: 0.00083 s⁻¹

## CC[C@H](C)[C@H](NC(=O)[C@H](Cc1ccccc1)NC(=O)[C@H](CC(N)=O)NC(=O)[C@H](CCCCN)NC(=O)[C@H](CCCCN)NC(=O)[C@H](Cc1c[nH]c2ccccc12)NC(=O)[C@H](CCCNC(=N)N)NC(=O)[C@H](C)NC(=O)[C@H](C)NC(=O)[C@H](C)NC(=O)[C@@H](N)CS)C(=O)N[C@@H](C)C(=O)N[C@H](C(=O)N[C@@H](CO)C(=O)N[C@@H](C)C(=O)N[C@@H](C)C(=O)N[C@@H](CC(N)=O)C(=O)N[C@@H](CCCNC(=N)N)C(=O)N[C@@H](C)C(=O)N[C@@H](CCCCN)C(=O)N[C@@H](CCCCN)C(=O)N[C@H](C(=O)N[C@@H](CO)C(N)=O)[C@@H](C)CC)C(C)C [Peptide 13] (H-CAAARWKKNFIAVSAANRAKKIS-NH2; N-terminus assumed)
Bovine brain calmodulin [1]
  kisom. (s^-1)^A: 1.8 (10.8) × 10^-1 s^-1
Bovine brain calmodulin [2]; BIAcore
  koff: 0.00084 s⁻¹
  kon: 930000 M⁻¹ s⁻¹
calmodulin
  koff: ≥ 0.001 s⁻¹

## CC[C@H](C)[C@H](NC(=O)[C@H](Cc1ccccc1)NC(=O)[C@H](CC(N)=O)NC(=O)[C@H](CCCCN)NC(=O)[C@H](CCCCN)NC(=O)[C@H](Cc1c[nH]c2ccccc12)NC(=O)[C@H](CCCNC(=N)N)NC(=O)[C@H](C)NC(=O)[C@H](C)NC(=O)[C@H](C)NC(=O)[C@@H](N)CS)C(=O)N[C@@H](C)C(=O)N[C@H](C(=O)N[C@@H](CO)C(=O)N[C@@H](C)C(=O)N[C@@H](C)C(=O)N[C@@H](CC(N)=O)C(=O)N[C@@H](CCCNC(=N)N)C(=O)N[C@@H](Cc1ccccc1)C(=O)N[C@@H](C)C(=O)N[C@@H](CCCCN)C(=O)N[C@H](C(=O)N[C@@H](CO)C(N)=O)[C@@H](C)CC)C(C)C [Peptide 14] (H-CAAARWKKNFIAVSAANRFAKIS-NH2; N-terminus assumed)
Bovine brain calmodulin [1]
  kisom. (s^-1)^A: 1.6 (10.2) × 10^-2 s^-1
Bovine brain calmodulin [2]; BIAcore
  increase in kon with respect to the wild-type peptide 1: 4-5 fold
  koff: 0.00014 s⁻¹
  kon: 2.5e+06 M⁻¹ s⁻¹
Bovine brain calmodulin [2]
  improvement in Kd / affinity for calmodulin over the wild type peptide, in words: greatest improvement in affinity
calmodulin
  dissociation from calmodulin in competition with excess unlabelled peptide, in words: intermediate off-rate
  koff: 0.00015 s⁻¹
